# Source: patent US20070178544A1, “Anti fk778antibodies and high sensitive immunoassay methods” (priority 2004, published 2007)
# Test: Selection of an immunogen: titer of antibody in sera of immunized mice
# Assay type: in vivo
# Details: immunogen conjugated with bovine thyroglobulin, with FCA, Balb/c mice; four (FR267471, FR266831) or seven (FR270531) immunizations
# Protocol: To obtain the selective antibody against FK778, two kinds of immunogens which were conjugated (FR267471 and FR266831) with bovine thyroglobulin (Sigma-Aldrich Corp.) mixed with Freund's complete adjuvant (FCA) (Difco) were immunized in hyperimmune Balb/c mice. After four times immunizations, the titer of antibody against the FR267471-BSA or the FR266831-BSA in sera was measured by enzyme-linked immunosorbent assay. […] To obtain immunogens having higher titer than the two immunogens, another type of immunogen FR270531 was synthesized. […] Accordingly, the present inventors have used FR270531 as an immunogen to produce antibodies directed to FK778, and FR267471 and FR266831 as positive and negative control to select the FK778 antibody specifically binding to the FK778 substance.
row,SMILES,titer of antibody in sera
1,"N#C/C(C(=O)Nc1ccc(C(F)(F)F)cc1)=C(/O)CCCC(=O)O [FR266831, (5Z)-6-cyano-5-hydroxy-7-oxo-7-{[4-(trifluoromethyl)phenyl]amino}-5-heptenoic acid]",not sufficient
2,"C#CCC/C(O)=C(\C#N)C(=O)Nc1ccc(OCCCCCC(=O)O)cc1 [FR267471, 6-(4-{[(2Z)-2-cyano-3-hydroxy-2-hepten-6-ynoyl]amino}phenoxy)hexanoic acid]",not sufficient
3,"C#CCC/C(O)=C(\C#N)C(=O)Nc1ccc(OCCCCCC(=O)Oc2c(F)c(F)c(F)c(F)c2F)cc1 [FR270531, pentafluorophenyl 6-(4-{[(2Z)-2-cyano-3-hydroxy-2-hepten-6-ynoyl]amino}phenoxy)hexanoate]",higher than those of FR267471 and FR266831
